In US20070021456A1, “Aminobenzimidazole derivatives” (MERCK PATENT GMBH, priority 2003, published 2007):

target: Tie-2 kinase (Homo sapiens, UniProt Q02763); experiment: TIE-2 kinase flashplate assay (phosphorylation of poly(Glu, Tyr) with 33P-ATP); type: biochemical; settings: read-out: Inhibition of TIE-2 IC50
Method: The assay determines the inhibiting activity of the substances to be tested in the phosphorylation of the substrate poly(Glu, Tyr) by Tie-2 kinase in the presence of radioactive ^33P-ATP. The phosphorylated substrate binds to the surface of a “flashplate” microtitre plate during the incubation time. After removal of the reaction mixture, the microtitre plate is washed a number of times and the radioactivity on its surface is subsequently measured. An inhibiting effect of the substances to be measured results in lower radioactivity compared with an undisturbed enzymatic reaction.

Chain of Tie-2 kinase (Q02763 23-1124): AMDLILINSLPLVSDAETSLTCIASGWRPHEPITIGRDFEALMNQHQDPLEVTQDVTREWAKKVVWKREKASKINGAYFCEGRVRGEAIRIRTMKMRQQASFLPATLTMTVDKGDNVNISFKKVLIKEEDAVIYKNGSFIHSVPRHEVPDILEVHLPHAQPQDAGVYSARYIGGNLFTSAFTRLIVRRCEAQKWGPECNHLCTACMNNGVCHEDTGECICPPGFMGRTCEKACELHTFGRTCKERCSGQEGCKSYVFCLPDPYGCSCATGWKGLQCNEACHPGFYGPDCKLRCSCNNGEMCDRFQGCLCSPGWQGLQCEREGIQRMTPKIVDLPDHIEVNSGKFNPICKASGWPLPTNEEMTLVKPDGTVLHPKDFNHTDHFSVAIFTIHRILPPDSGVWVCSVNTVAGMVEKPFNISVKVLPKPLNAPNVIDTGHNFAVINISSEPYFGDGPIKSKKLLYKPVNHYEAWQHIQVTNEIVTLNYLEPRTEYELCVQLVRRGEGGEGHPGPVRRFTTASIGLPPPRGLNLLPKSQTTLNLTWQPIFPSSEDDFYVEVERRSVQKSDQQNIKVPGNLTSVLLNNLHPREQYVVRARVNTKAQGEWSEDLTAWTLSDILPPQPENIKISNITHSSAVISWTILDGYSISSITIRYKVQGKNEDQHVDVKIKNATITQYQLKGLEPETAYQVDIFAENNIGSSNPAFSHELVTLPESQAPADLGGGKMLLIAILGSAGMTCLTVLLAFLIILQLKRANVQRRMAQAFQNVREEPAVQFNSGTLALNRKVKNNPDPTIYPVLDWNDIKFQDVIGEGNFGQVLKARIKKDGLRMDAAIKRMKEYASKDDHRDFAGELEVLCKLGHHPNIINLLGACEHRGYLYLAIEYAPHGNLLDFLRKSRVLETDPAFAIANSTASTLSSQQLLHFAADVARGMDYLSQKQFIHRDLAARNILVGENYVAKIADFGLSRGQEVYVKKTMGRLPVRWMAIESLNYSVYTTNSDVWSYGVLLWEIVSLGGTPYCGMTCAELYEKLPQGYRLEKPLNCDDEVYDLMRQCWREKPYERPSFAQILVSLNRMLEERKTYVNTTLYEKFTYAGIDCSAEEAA

Row | Structure (SMILES) | IC50 [nM]
1 | Nc1nc2ccc(Oc3ccc(Nc4nc5cc(C(F)(F)F)cc(Cl)c5[nH]4)cc3)cc2s1 [No. 38] | 320
2 | Cc1cc(Oc2ccc(Nc3nc4c(Br)cc(C(F)(F)F)cc4[nH]3)cc2)c(C)c2sc(N)nc12 [No. 31] | 390
3 | FC(F)(F)c1cc(Cl)c2nc(Nc3ccc(Oc4ccc5nsnc5c4)cc3)[nH]c2c1 [No. 2] | 250
4 | FC(F)(F)c1cc(Br)c2nc(Nc3ccc(Oc4ccc5nsnc5c4)cc3)[nH]c2c1 [A1, [4-(benzo-1,2,5-thiadiazol-5-yloxy)phenyl](4-bromo-6-trifluoromethyl-1H-benzimidazol-2-yl)amine] | 220
